Measurements from ChEMBL document CHEMBL1138128, “Phenolic P2/P3 core motif as thrombin inhibitors--design, synthesis, and X-ray co-crystal structure” (Bioorg Med Chem Lett, 2006).
pIC50: −log10 of the molar value.

Columns and labels:
[1] = target: Prothrombin (Homo sapiens, UniProt P00734); assay: Inhibitory activity against thrombin
[2] = target: Trypsin (Homo sapiens, UniProt P07477+P07478+P35030); assay: Inhibitory activity against trypsin; format: protein assay

Compound | pIC50 [1] | IC50 [2] [nM]
Cc1ccnc(CNC(=O)Cc2c(C)ccc(NS(=O)(=O)c3cccc(Cl)c3)c2O)c1F | 4.85 | > 44000
Cc1ccnc(CNC(=O)Cc2c(C)ccc(NCS(=O)(=O)c3cccc(Cl)c3)c2O)c1F | 4.82 | > 44000
Cc1ccc(S(=O)(=O)Nc2ccc(C)c(CC(=O)NCc3nccc(C)c3F)c2O)cc1Cl | 4.70 | > 44000
Cc1ccc(NS(=O)(=O)c2ccccc2)c(O)c1CC(=O)NCc1ccc(C(=N)N)cc1.Cl | 7.01 | 600
COc1cccc(S(=O)(=O)Nc2ccc(C)c(CC(=O)NCc3ccc(C(=N)N)cc3)c2O)c1.Cl | 7.80 | 280
Cc1ccc(NCC(=O)c2ccccc2)c(O)c1CC(=O)NCc1ccc(C(=N)N)cc1.Cl | 5.33 | 4000
Cc1ccc(NS(=O)(=O)c2cccc(C(F)(F)F)c2)c(O)c1CC(=O)NCc1ccc(C(=N)N)cc1.Cl | 6.92 | 2800
Cc1ccc(NCS(=O)(=O)c2ccccc2)c(O)c1CC(=O)NCc1ccc(C(=N)N)cc1.Cl | 6.72 | 3100
Cc1ccc(C)c(S(=O)(=O)Nc2ccc(C)c(CC(=O)NCc3ccc(C(=N)N)cc3)c2O)c1.Cl | 7.60 | 110
Cc1ccc(NS(=O)(=O)c2cc(Cl)ccc2Cl)c(O)c1CC(=O)NCc1ccnc(N)c1.Cl | 6.00 | > 44000
Cc1ccc(NS(=O)(=O)c2ccc(Cl)cc2)c(O)c1CC(=O)NCc1ccc(C(=N)N)cc1.Cl | 6.89 | 940
Cc1ccc(NCS(=O)(=O)c2ccccc2)c(O)c1CC(=O)NCc1ccc(N)nc1C.Cl | 6.24 | > 44000
Cc1ccc(NS(=O)(=O)c2ccc(Cl)cc2F)c(O)c1CC(=O)NCc1ccc(C(=N)N)cc1.Cl | 7.09 | 680
Cc1ccc(S(=O)(=O)Nc2ccc(C)c(CC(=O)NCc3ccc(C(=N)N)cc3)c2O)cc1.Cl | 6.60 | 1100
Cc1ccc(NCNC(=O)c2ccccc2)c(O)c1CC(=O)NCc1ccc(C(=N)N)cc1.Cl | 5.62 | 2700
Cc1ccc(NS(=O)(=O)c2cccc(Cl)c2C)c(O)c1CC(=O)NCc1ccc(N)nc1C.Cl | 6.72 | > 44000
COc1ccc(S(=O)(=O)Nc2ccc(C)c(CC(=O)NCc3ccc(C(=N)N)cc3)c2O)cc1.Cl | 7.30 | 910
Cc1ccc(NS(=O)(=O)c2cccc3ccccc23)c(O)c1CC(=O)NCc1ccc(C(=N)N)cc1.Cl | – | 1100
Cc1ccccc1S(=O)(=O)Nc1ccc(C)c(CC(=O)NCc2ccc(N)nc2C)c1O.Cl | 6.59 | > 44000
Cc1ccc(S(=O)(=O)Nc2ccc(C)c(CC(=O)NCc3ccc(N)nc3C)c2O)cc1F.Cl | 6.23 | > 44000
COc1ccc(S(=O)(=O)Nc2ccc(C)c(CC(=O)NCc3ccc(C(=N)N)cc3)c2O)cc1OC.Cl | 7.41 | 340
Cc1ccc(NS(=O)(=O)c2ccccc2Cl)c(O)c1CC(=O)NCc1ccnc(N)c1.Cl | 5.52 | > 44000
